Where a name gives a salt, the structure may show the parent alone. Read-outs that look alike come from different tables or passages of the source.
Key:
NLRP3 [1] = molecular target: T1, NLRP3 (Homo sapiens (Human), UniProt Q96P20); assay: Human whole blood IL1β release assay (LPS + nigericin); assay type: cell-based; settings: human whole blood, 1 μg/ml LPS, nigericin, IL-1β release; read-out: HWB IC50
Protocol: For systemic delivery, the ability to inhibit NLRP3 when the compounds are present within the bloodstream is of great importance. For this reason, the NLRP3 inhibitory activity of a number of compounds in human whole blood was investigated in accordance with the following protocol.
Human whole blood in Li-heparin tubes was obtained from healthy donors from a volunteer donor panel. • 1. Plate out 80 μl of whole blood containing 1 μg/ml of LPS in 96-well, clear bottom cell culture plate (Corning #3585) • 2. Add 10 μl compound (8 points half-log dilution with 10 μM top dose) or vehicle (DMSO 0.1% FAC) to the appropriate wells • 3. Incubate for 3 hrs at 37° C., 5% CO2 • 4. Add 10 μl nigericin (Sigma #N7143) ([…]) to all wells • 5. Incubate for 1 hr at 37° C., 5% CO2 • 6. At the end of the incubation period, spin plates at 30×g for 5 mins to pellet cells and remove 20 μl of supernatant and add to 96-well v-bottom plates for IL-1β analysis (note: these plates containing the supernatants can be stored at −80° C. to be analysed at a later date) • 7. IL-1β was measured according to the manufacturer protocol (Perkin Elmer-AlphaLisa IL-Kit A[220F-5000) • 8. IC50 data is fitted to a non-linear regression equation (log inhibitor vs response-variable slope 4-parameters)

PK, oral administration = assay type: in vivo, male Sprague Dawley rats; settings: male, Sprague Dawley, plasma, rat, dose 3 mg/kg
Protocol: (§1) Pharmacokinetic parameters were determined in male Sprague Dawley rats (Charles River, UK, 250-300 g; or Vital River Laboratory Animal Technology Co Ltd, Beijing, China, 7-9 weeks old). Animals were individually housed during the study and maintained under a 12 h light/dark cycle. Animals had free access to food and water except that orally dosed animals were food deprived overnight prior to the study. For intravenous administration, compounds were formulated as a solution in water or DMSO:PBS [10:90] in 2 mL/kg dosing volume and administered via tail vein. For oral administration, compounds were formulated as a solution in water or DMSO:water [10:90] in 5 mL/kg dosing volume and administered orally. Serial blood samples (about 120-300 μL) were taken from each animal at each of 8 time-points post dose (0.083, 0.25, 0.5, 1, 2, 4, 8 and 24 h). Samples were held on ice for no longer than 30 minutes before centrifugation (10,000 rpm (8,385 g) for 3 minutes; or 5,696 rpm (3,000 g) for 15 minutes) for plasma generation. Plasma was frozen on dry ice prior to bioanalysis. PK parameters were generated from LC-MS/MS data using Dotmatics or Phoenix WinNonlin 6.3 software.

NLRP3 [2] = molecular target: T1, NLRP3; assay: THP-1 cells pyroptosis assay (LPS + nigericin, resazurin read-out); assay type: cell-based; settings: 1 μg/ml LPS, 5 μM nigericin
Procedure, shortened: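 LPS-primed (1 μg/ml) human THP-1 cells in serum-free RPMI were exposed to compound (8-point half-log series, top dose as printed "10M") for 3 h at 37 °C, then to nigericin 5 μM for 1 h. Remaining viability was read by resazurin (100 μM, 1-2 h) fluorescence, and IC50 came from 4-parameter variable-slope regression.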

[3] = PK, intravenous administration; assay type: in vivo, male Sprague Dawley rats; settings: male, Sprague Dawley, plasma, rat, intravenous; for AUC: read-out: AUC; for clearance: read-out: Cl; for half-life: read-out: T1/2 (converted); for Vd: read-out: Vdss
Protocol: as §1

T1 sequence (Q96P20 whole entry): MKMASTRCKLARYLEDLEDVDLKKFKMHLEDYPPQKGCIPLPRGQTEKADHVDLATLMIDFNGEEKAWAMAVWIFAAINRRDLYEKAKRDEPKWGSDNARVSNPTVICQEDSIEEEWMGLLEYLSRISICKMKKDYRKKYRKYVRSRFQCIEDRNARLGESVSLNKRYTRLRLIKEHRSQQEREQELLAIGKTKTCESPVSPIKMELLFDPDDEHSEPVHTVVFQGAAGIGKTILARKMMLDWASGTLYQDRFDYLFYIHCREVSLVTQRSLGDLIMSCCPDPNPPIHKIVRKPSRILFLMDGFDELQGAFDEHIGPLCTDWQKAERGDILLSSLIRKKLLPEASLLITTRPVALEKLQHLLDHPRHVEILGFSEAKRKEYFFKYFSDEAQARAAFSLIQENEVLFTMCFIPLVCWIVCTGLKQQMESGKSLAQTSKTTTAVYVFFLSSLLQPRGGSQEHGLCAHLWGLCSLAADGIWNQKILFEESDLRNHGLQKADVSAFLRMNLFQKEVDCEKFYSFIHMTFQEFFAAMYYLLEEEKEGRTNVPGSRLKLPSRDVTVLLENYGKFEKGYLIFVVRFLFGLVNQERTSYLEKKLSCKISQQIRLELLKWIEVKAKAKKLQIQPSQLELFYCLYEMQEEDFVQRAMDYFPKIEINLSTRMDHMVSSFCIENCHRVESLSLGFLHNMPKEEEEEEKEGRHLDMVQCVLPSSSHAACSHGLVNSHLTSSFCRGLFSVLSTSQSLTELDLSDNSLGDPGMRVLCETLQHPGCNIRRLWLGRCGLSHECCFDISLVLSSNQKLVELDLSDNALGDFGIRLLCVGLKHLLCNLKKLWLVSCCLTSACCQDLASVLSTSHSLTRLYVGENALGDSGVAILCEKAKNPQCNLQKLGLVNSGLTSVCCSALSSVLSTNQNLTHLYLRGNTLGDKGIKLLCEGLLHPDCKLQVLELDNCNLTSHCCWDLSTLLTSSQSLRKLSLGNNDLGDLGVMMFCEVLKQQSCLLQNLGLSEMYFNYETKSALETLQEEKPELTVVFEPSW

| SMILES | IC50 (NLRP3 [1]) [µM] | IC50 (NLRP3 [2]) [µM] | AUC ([3]; dose 1 mg/kg) [ng·h/mL] | clearance ([3]; dose 1 mg/kg) [mL/min/kg] | half-life ([3]; dose 1 mg/kg) [h] | Vd ([3]; dose 1 mg/kg) [L/kg] | other results |
| --- | --- | --- | --- | --- | --- | --- | --- |
| CCN1CCC(S(=O)(=O)NC(=O)Nc2c3c(cc4c2CCC4)CCC3)CC1 [Example 6, 1-Ethyl-N-((1,2,3,5,6,7-hexahydro-s-indacen-4-yl)carbamoyl)piperidine-4-sulfonamide, potassium salt] | < 1 | < 1 | 2340 | 7.2 | 2.7 | 0.61 | AUC (PK, oral administration): 5400 ng·h/mL; Cmax (PK, oral administration): 1770 ng/mL; Tmax (PK, oral administration): 0.5 h; half-life (PK, oral administration): 2.7 h |
| CN1CCC(S(=O)(=O)NC(=O)Nc2c3c(cc4c2CCC4)CCC3)CC1 [Example 1, N-((1,2,3,5,6,7-Hexahydro-s-indacen-4-yl)carbamoyl)-1-methylpiperidine-4-sulfonamide, potassium salt] | 1 to 10 | 1 to 10 | 1950 | 8.5 | 1.2 | 0.58 | – |
| COc1cc(-c2ccc3c(c2NC(=O)NS(=O)(=O)c2ccc(=O)n(C(C)C)c2)CCC3)ccn1 [Example 153, 1-Isopropyl-N-((5-(2-methoxypyridin-4-yl)-2,3-dihydro-1H-inden-4-yl)carbamoyl)-6-oxo-1,6-dihydropyridine-3-sulfonamide] | < 1 | < 1 | 511 | 32.6 | 1.1 | 1.21 | – |
| CC(C)N1CCC(S(=O)(=O)NC(=O)Nc2c3c(cc4c2CCC4)CCC3)C1 (centres unmarked) [Example 41, N-((1,2,3,5,6,7-Hexahydro-s-indacen-4-yl)carbamoyl)-1-iso-propylpyrrolidine-3-sulfonamide, potassium salt] | < 1 | < 1 | 1850 | 9.1 | 2.9 | 0.78 | – |
| O=C(Nc1c2c(cc3c1CCC3)CCC2)NS(=O)(=O)C1CN(CC2CC2)C1 [Example 94, 1-(Cyclopropylmethyl)-N-((1,2,3,5,6,7-hexahydro-s-indacen-4-yl)carbamoyl)azetidine-3-sulfonamide, potassium salt] | < 1 | < 1 | – | – | – | – | AUC ([3]; dose 2.09 mg/kg): 1410 ng·h/mL; clearance ([3]; dose 2.09 mg/kg): 25.2 mL/min/kg; half-life ([3]; dose 2.09 mg/kg): 1.1 h; Vd ([3]; dose 2.09 mg/kg): 1.62 L/kg |
| CCCN1CC(S(=O)(=O)NC(=O)Nc2c3c(cc4c2CCC4)CCC3)C1 [Example 76, N-((1,2,3,5,6,7-Hexahydro-s-indacen-4-yl)carbamoyl)-1-propylazetidine-3-sulfonamide, potassium salt] | < 1 | < 1 | 2650 | 6.3 | 1 | 0.25 | – |
| O=C(Nc1c2c(cc3c1CCC3)CCC2)NS(=O)(=O)C1CN(C2CSC2)C1 [Example 109, N-((1,2,3,5,6,7-Hexahydro-s-indacen-4-yl)carbamoyl)-1-(thietan-3-yl)azetidine-3-sulfonamide, potassium salt] | < 1 | < 1 | 1730 | 9.6 | 1.3 | 0.64 | – |
| CCN1CC(S(=O)(=O)NC(=O)Nc2c3c(cc4c2CCC4)CCC3)C1 [Example 53, 1-Ethyl-N-((1,2,3,5,6,7-hexahydro-s-indacen-4-yl)carbamoyl) azetidine-3-sulfonamide, potassium salt] | < 1 | < 1 | – | – | – | – | – |
| O=C(Nc1c2c(cc3c1CCC3)CCC2)NS(=O)(=O)C1CN(Cc2cccnc2Br)C1 [Example 105, 1-((2-Bromopyridin-3-yl)methyl)-N-((1,2,3,5,6,7-hexahydro-s-indacen-4-yl)carbamoyl)azetidine-3-sulfonamide, potassium salt] | > 10 | < 1 | – | – | – | – | – |
| COc1cc(-c2cc(F)cc(C(C)C)c2NC(=O)NS(=O)(=O)C2CN(C(C)C)C2)ccn1 [Example 158, N-((4-Fluoro-2-isopropyl-6-(2-methoxypyridin-4-yl)phenyl)carbamoyl)-1-isopropylazetidine-3-sulfonamide] | < 1 | < 1 | – | – | – | – | – |
| CC(C)NC(=O)N1CCC(S(=O)(=O)NC(=O)Nc2c3c(cc4c2CCC4)CCC3)CC1 [Example 5, 4-(N-((1,2,3,5,6,7-Hexahydro-s-indacen-4-yl)carbamoyl)sulfamoyl)-N-isopropylpiperidine-1-carboxamide, potassium salt] | 1 to 10 | < 1 | – | – | – | – | – |
| CC(C)c1cc(F)cc(-c2ccnc(C#N)c2)c1NC(=O)NS(=O)(=O)c1ccc(=O)n(C(C)C)c1 [Example 172, N-((2-(2-cyanopyridin-4-yl)-4-fluoro-6-isopropylphenyl)carbamoyl)-1-isopropyl-6-oxo-1,6-dihydropyridine-3-sulfonamide] | < 1 | < 1 | – | – | – | – | – |
| CC(C)N1CC(S(=O)(=O)NC(=O)Nc2c3c(cc4c2CCC4)CCC3)C1 [Example 46, N-((1,2,3,5,6,7-Hexahydro-s-indacen-4-yl)carbamoyl)-1-iso-propylazetidine-3-sulfonamide, potassium salt] | < 1 | < 1 | 2080 | 8.2 | 1.2 | 0.45 | AUC (PK, oral administration): 3510 ng·h/mL; Cmax (PK, oral administration): 1330 ng/mL; Tmax (PK, oral administration): 0.67 h; half-life (PK, oral administration): 1.4 h |
| COc1cc(-c2cc(F)cc(C(C)C)c2NC(=O)NS(=O)(=O)c2ccc(=O)n(C(C)C)c2)ccn1 [Example 173, N-((4-Fluoro-2-isopropyl-6-(2-methoxypyridin-4-yl)phenyl)carbamoyl)-1-isopropyl-6-oxo-1,6-dihydropyridine-3-sulfonamide] | < 1 | < 1 | – | – | – | – | – |
| COc1cc(-c2ccc3c(c2NC(=O)NS(=O)(=O)C2CN(C4CCC4)C2)CCC3)ccn1 [Example 163, 1-Cyclobutyl-N-((5-(2-methoxypyridin-4-yl)-2,3-dihydro-1H-inden-4-yl)carbamoyl)azetidine-3-sulfonamide] | < 1 | < 1 | – | – | – | – | – |
| CC1(C)CCC1N1CC(S(=O)(=O)NC(=O)Nc2c3c(cc4c2CCC4)CCC3)C1 (centres unmarked) [Example 124, 1-(2,2-Dimethylcyclobutyl)-N-((1,2,3,5,6,7-hexahydro-s-indacen-4-yl)carbamoyl)azetidine-3-sulfonamide, potassium salt] | 1 to 10 | < 1 | – | – | – | – | – |
| CCN1CCCC(S(=O)(=O)NC(=O)Nc2c3c(cc4c2CCC4)CCC3)C1 (centres unmarked) [Example 9, 1-Ethyl-N-((1,2,3,5,6,7-hexahydro-s-indacen-4-yl)carbamoyl)-piperidine-3-sulfonamide, potassium salt] | < 1 | < 1 | 2670 | 6.5 | 3.9 | 0.63 | – |
| CC(C)N1CCCC(S(=O)(=O)NC(=O)Nc2c3c(cc4c2CCC4)CCC3)C1 (centres unmarked) [Example 31, N-((1,2,3,5,6,7-Hexahydro-s-indacen-4-yl)carbamoyl)-1-iso-propyl-piperidine-3-sulfonamide, potassium salt] | < 1 | < 1 | 2750 | 6.1 | 4.5 | 0.47 | – |
| CC(C)CN1CC(S(=O)(=O)NC(=O)Nc2c3c(cc4c2CCC4)CCC3)C1 [Example 97, N-((1,2,3,5,6,7-Hexahydro-s-indacen-4-yl)carbamoyl)-1-isobutylazetidine-3-sulfonamide, potassium salt] | < 1 | < 1 | – | – | – | – | – |

Reference: US20250115591A1, “NOVEL SULFONAMIDE CARBOXAMIDE COMPOUNDS” (INFLAZOME LIMITED, priority 2017, published 2025)
